One test deals with T1, MMP-2 (Homo sapiens, UniProt P08253).
T1 construct: purchased Sino Biological 10082-HNAH
T1 sequence (P08253 110-660): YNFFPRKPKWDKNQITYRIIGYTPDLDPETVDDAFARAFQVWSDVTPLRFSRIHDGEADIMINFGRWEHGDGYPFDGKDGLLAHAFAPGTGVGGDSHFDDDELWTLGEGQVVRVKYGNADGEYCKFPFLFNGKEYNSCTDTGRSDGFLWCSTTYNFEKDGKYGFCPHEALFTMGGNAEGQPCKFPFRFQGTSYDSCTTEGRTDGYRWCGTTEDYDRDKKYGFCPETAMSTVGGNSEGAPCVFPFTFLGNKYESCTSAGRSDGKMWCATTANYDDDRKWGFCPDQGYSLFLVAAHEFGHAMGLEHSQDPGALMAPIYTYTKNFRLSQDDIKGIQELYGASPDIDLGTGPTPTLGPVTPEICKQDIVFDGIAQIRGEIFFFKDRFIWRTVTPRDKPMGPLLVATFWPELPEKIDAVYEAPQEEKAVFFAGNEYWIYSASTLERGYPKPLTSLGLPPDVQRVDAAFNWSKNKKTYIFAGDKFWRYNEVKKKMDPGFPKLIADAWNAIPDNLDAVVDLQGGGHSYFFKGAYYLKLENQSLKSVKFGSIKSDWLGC
The test can be described thus: De novo T-DEL selection against MMP-2, NGS decoding. The format is binding. As to conditions: for Enrichment Fold / Count: MMP2 selection; for Count: NGS sequence count per Compound ID (Figure 4a). The text has this:
Matrix metalloproteinases (MMPs) are zinc-dependent endopeptidases capable of degrading and remodeling extracellular matrix components[46],[47]. They are attractive therapeutic targets as high expression levels were detected in various diseases, such as inflammatory diseases, and at different stages of cancers, including metastasis, invasion, and angiogenesis[47]–[53]. As shown in Supplementary Fig. 3c, we performed selections against the two gelatinases (human MMP-2 and human MMP-9) to identify binding fragments for later design and synthesis of small molecule inhibitors. After selection, the three sub-libraries were decoded, and the enrichment was calculated by dividing the post-selection fraction (count/total counts) by the pre-selection fraction (Fig. 4a and Supplementary Fig. 13).
4 µg of MMP-2/MMP-9 was dissolved in 100 µl of selection buffer containing 25 mM Tris-base, 10 mM CaCl2, 150 mM NaCl, 0.05% Tween 20, pH 7.5. 10 µl of 4-Aminophenylmercuric acetate (APMA) (100 mM) solution was added to the protein solution and incubated at 37 °C for 1 h. After activation, the solution was added on top of 40 µl pre-washed Ni-NTA resin and incubated for 30 min on a rotary shaker. The supernatant was discarded, and the resin was washed three times with the selection buffer.
For each independent selection, three sub-libraries were mixed in the selection buffer with a final concentration of 40 nM of each sub-library in 100 µl. The mixture was heat denatured at 90 °C for 1 min and slowly cooled down to allow the formation of the trio-pharmacophore library. The dynamic dual-pharmacophore DEL was provided by DyNAbind GmbH (Merck, DYNA001).
The assembled library was incubated with the protein-bound solid support for 2 h at RT on a rotary shaker. In parallel, selection on bare solid support served as the negative control to exclude promiscuous binders on the resin. After panning, the supernatant was discarded, and the resin was washed three times with 1 ml selection buffer. Finally, 100 µl of 50 mM Tris buffer, pH 7.4 was added to resuspend the resin and the resin was incubated at 95 °C for 5 min to denature the protein, release, and collect the bound library members.
The eluted library members were subjected to sample preparation for NGS. NGS preparation was achieved by two-step PCR. First, the individual selection was indexed using primers containing unique sequences corresponding to each selection. The amplified product was purified from 2% agarose gel. Second, the purified DNA from all selections were pooled in equal amount and subjected to the 2nd PCR step to attach sequences compatible with the NGS flow cell and the sequencing primers. NGS was performed by Novogene UK with Novaseq 6000. Raw data files (fastq files) obtained were decoded using a custom python script and excel. The sequence reads corresponding to each sample was retrieved by searching for the correct index unique to each selection. Then, the code region was extracted from each sequence and assigned to the corresponding identity. The count of each code in each selection sample was obtained by looping through the total reads and counting the occurrence of each code. The enrichment fold of each compound was calculated by first, dividing the count by the total count to get the abundance, second, the abundance after the selection was divided by the abundance of pre-selection to reflect the distribution change of the compound. Next, the enrichment fold was plotted against the count for each member of the library to give the scatter plots as in Fig. 4.

For another test, the target named is T2, MMP-9 (Homo sapiens, UniProt P14780).
T2 construct: purchased Sino Biological 10327-HNAH
T2 sequence (P14780 107-707 limits assumed): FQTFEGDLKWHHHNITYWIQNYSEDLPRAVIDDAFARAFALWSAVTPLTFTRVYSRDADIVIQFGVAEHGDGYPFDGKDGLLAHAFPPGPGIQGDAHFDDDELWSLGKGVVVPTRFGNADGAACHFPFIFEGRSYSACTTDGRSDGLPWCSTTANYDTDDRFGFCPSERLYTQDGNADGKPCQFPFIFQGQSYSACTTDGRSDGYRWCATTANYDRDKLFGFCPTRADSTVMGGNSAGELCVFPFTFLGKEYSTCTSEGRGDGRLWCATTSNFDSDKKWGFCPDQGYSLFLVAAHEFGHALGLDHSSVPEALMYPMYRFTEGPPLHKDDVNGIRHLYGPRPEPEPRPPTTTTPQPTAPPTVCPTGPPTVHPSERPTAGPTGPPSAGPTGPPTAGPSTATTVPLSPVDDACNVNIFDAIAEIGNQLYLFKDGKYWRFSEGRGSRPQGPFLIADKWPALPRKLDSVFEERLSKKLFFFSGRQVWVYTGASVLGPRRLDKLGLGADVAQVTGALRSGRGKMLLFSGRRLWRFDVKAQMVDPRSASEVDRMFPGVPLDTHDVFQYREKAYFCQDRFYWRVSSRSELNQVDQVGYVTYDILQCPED
The test can be described thus: MMP-9 inhibition assay (fluorogenic peptide substrate). The format is biochemical. In outline: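 Human proMMP-2 and proMMP-9 were activated with 1 mM APMA (37 °C, 2 h), then used at 6.5 nM (MMP-2) or 10 nM (MMP-9) in Tris/NaCl/CaCl2/Brij 35 buffer, pH 7.5. Enzyme was preincubated with compound 30 min at RT; 25 μM DNP-Pro-Leu-Gly-Met-Trp-Ser-Arg substrate was added and fluorescence (ex 280/em 360 nm) followed 30 min. IC50 from logistic fits of Vmax.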

From paper PMC10023787, “Trio-pharmacophore DNA-encoded chemical library for simultaneous selection of fragments and linkers” (Nature Communications, 2023) come the findings set out here.

“Also recorded” adds a separate entry of the source. Like-named read-outs stand apart in the source and are kept apart here.

Turning to `O=C(O)Cn1cnc2c(oc3ccccc32)c1=O` [Compound 182], at MMP-2 (NGS sequence count per SL-A member, de novo T-DEL selection against MMP-2 (Figure 4a source data)), the “MMP2 SL-A Count” value turned out to be 3616. Also, the “MMP2 SL-C Count” value on MMP-2 (NGS sequence count per SL-C member, de novo T-DEL selection against MMP-2 (Figure 4a source data)) turned out to be 971. The “MMP2 SL-A Enrichment Fold” value at MMP-2 (enrichment fold per SL-A member, de novo T-DEL selection against MMP-2 (Figure 4a source data)) is reported as 1.934. At MMP-2 (enrichment fold per SL-C member, de novo T-DEL selection against MMP-2 (Figure 4a source data)), the “MMP2 SL-C Enrichment Fold” value is 0.9721. Further, the remaining activity at 0.062464 µM on MMP-9 (Figure 5b, fragment concentration 0.062464 µM, read-out: Normalized activity (Mean)) was determined as 93.2%. The remaining activity at 0.31232 µM on MMP-9 (Figure 5b, fragment concentration 0.31232 µM, read-out: Normalized activity (Mean)) turned out to be 98.5%. In addition, the remaining activity at 1.5616 µM on MMP-9 (Figure 5b, fragment concentration 1.5616 µM, read-out: Normalized activity (Mean)) came out at 93.8%. The remaining activity at 7.808 µM on MMP-9 (Figure 5b, fragment concentration 7.808 µM, read-out: Normalized activity (Mean)) was found to be 101%. The remaining activity at 39.04 µM at MMP-9 (Figure 5b, fragment concentration 39.04 µM, read-out: Normalized activity (Mean)) was 52.9%; at MMP-9 (MMP-9, concentration 39.04 µM, read-out: Mean (MMP-9, Supplementary fig 16)) it was 52.9%. The remaining activity at 195.2 µM on MMP-9 (Figure 5b, fragment concentration 195.2 µM, read-out: Normalized activity (Mean)) was 20%; at MMP-9 (MMP-9, concentration 195.20 µM, read-out: Mean (MMP-9, Supplementary fig 16)), 21%. Further, the remaining activity at 976 µM at MMP-9 (Figure 5b, fragment concentration 976 µM, read-out: Normalized activity (Mean)) stood at 0%; at MMP-9 (MMP-9, concentration 976.00 µM, read-out: Mean (MMP-9, Supplementary fig 16)), 0%. Besides, the remaining activity at 0.06 µM at MMP-9 (MMP-9, concentration 0.06 µM, read-out: Mean (MMP-9, Supplementary fig 16)) stood at 93.2%. Besides, on MMP-9 (MMP-9, concentration 0.31 µM, read-out: Mean (MMP-9, Supplementary fig 16)), the remaining activity at 0.31 µM was found to be 98.5%. In addition, the remaining activity at 1.56 µM on MMP-9 (MMP-9, concentration 1.56 µM, read-out: Mean (MMP-9, Supplementary fig 16)) worked out at 93.8%. The remaining activity at 7.81 µM on MMP-9 (MMP-9, concentration 7.81 µM, read-out: Mean (MMP-9, Supplementary fig 16)) was 101%. Besides, the IC50 (commonly the concentration at which inhibition is half-maximal) at MMP-9 (mean ± SE, n.d: not detected, Fig. 5e prints no unit, µM, read-out: IC50) was found to be 48.1 µM.

For `O=C(O)CNC(=O)NC12CC3CC(CC(C3)C1)C2` [Compound 66], the “Enrichment Fold” value is 8.24 on MMP-2 (sub-library SL-A (Figure 4a)) and 0.3913 at MMP-2 (sub-library SL-C (Figure 4a)). The results for the Count at MMP-2 (sub-library SL-A) and on MMP-2 (sub-library SL-C) were 13510 and 81, respectively. The remaining activity at 0.078016 µM on MMP-9 (Figure 5b, fragment concentration 0.078016 µM, read-out: Normalized activity (Mean)) worked out at 96.6%. For the same compound, the remaining activity at 0.39008 µM at MMP-9 (Figure 5b, fragment concentration 0.39008 µM, read-out: Normalized activity (Mean)) turned out to be 92.7%. Also, at MMP-9 (Figure 5b, fragment concentration 1.9504 µM, read-out: Normalized activity (Mean)), the remaining activity at 1.9504 µM came out at 92.2%. The remaining activity at 9.752 µM on MMP-9 (Figure 5b, fragment concentration 9.752 µM, read-out: Normalized activity (Mean)) was found to be 92.5%. Besides, the remaining activity at 48.76 µM at MMP-9 (Figure 5b, fragment concentration 48.76 µM, read-out: Normalized activity (Mean)) worked out at 86.3%; on MMP-9 (MMP-9, concentration 48.76 µM, read-out: Mean (dose-response, Supplementary fig 17)), 86.3%. Besides, the remaining activity at 243.8 µM on MMP-9 (Figure 5b, fragment concentration 243.8 µM, read-out: Normalized activity (Mean)) worked out at 85%; on MMP-9 (MMP-9, concentration 243.80 µM, read-out: Mean (dose-response, Supplementary fig 17)), 85%. Moreover, the remaining activity at 1219 µM on MMP-9 (Figure 5b, fragment concentration 1219 µM, read-out: Normalized activity (Mean)) was found to be 74.6%; at MMP-9 (MMP-9, concentration 1219.00 µM, read-out: Mean (dose-response, Supplementary fig 17)), 74.6%. Also, the remaining activity at 0.08 µM on MMP-9 (MMP-9, concentration 0.08 µM, read-out: Mean (dose-response, Supplementary fig 17)) turned out to be 96.6%. The remaining activity at 0.39 µM on MMP-9 (MMP-9, concentration 0.39 µM, read-out: Mean (dose-response, Supplementary fig 17)) came to 92.7%. In addition, at MMP-9 (MMP-9, concentration 1.95 µM, read-out: Mean (dose-response, Supplementary fig 17)), the remaining activity at 1.95 µM turned out to be 92.2%. Further, the remaining activity at 9.75 µM on MMP-9 (MMP-9, concentration 9.75 µM, read-out: Mean (dose-response, Supplementary fig 17)) is 92.5%. Moreover, the inhibitory effect entry at MMP-9 (in words) is “No inhibitory effects could be measured; also recorded: did not exhibit meaningful activity”.
